These results are taken from US20090099197A1 (priority 2005, published 2009).

Series [1] relates to K562/STI-571/R tumor xenografts. As to the kind of experiment: Tumor response in imatinib-resistant K562/STI-571/R xenograft model. Type of series: in vivo, SCID mice.
The subject of series [2] is K562/ADM (K562 cells over-expressing MDR-1). As to the kind of experiment: In vitro proliferation/cytotoxicity assay, MDR-1 overexpressing K562/ADM cells. It counts as cell-based, human. Particulars: for IC50: Homo sapiens. How it is done:
Two cell lines were used: K562 (erythromyeloblastoid CML) and K562/ADM (K562 cells over-expressing MDR-1).
Experiments were performed as described in Example 1 except that K562/ADM cells were used.

Series [3] deals with K562 (erythromyeloblastoid CML) cells. The series is described as follows: cells. Particulars: Homo sapiens, K562, 72 h.
Series [4] relates to imatinib-resistant BCR-ABL mutants. The following applies: cited from earlier work.
In series [5] the test system is wild-type BCR-ABL. The following applies: cited from earlier work.
The test system of series [6] is K562 (erythromyeloblastoid CML) cells.
A short description of series [7]: in vivo. Particulars: SCID, mouse. The method, then: Concentrations and dosing frequency are as specified in FIG. 4A. […] Experiments were performed as described in Example 4.
The test system of series [8] is K562-R (K562/STI-571/R) imatinib resistant cells.
Series [9] has as its system intracranial K562 cells. The series is described as follows: Bioluminescence imaging of intracranially inoculated K562 cells. Particulars: 15 mg/kg, 2qdx14, M-F, po. Type of series: in vivo, SCID mice. How it is done:
Experiments were performed as described in Example 4.

Series [10] has as its system K562/ADM tumor xenografts. The series is described as follows: Tumor response in SC K562/ADM leukemia xenograft model. Type of series: in vivo, mice. Particulars: QDx14. How it is done: (B) Activity versus K562/ADM tumor xenografts. Mice were implanted subcutaneously (SC) on Day 0 with K562/ADM. On Day 18 when tumors were at a size range of 100-200 mg, treatment began. […] Experiments were performed as described in Example 3.
Tumors implanted in mouse xenograft models were allowed to grow to a pre-determined size of 100-300 mg (tumors outside the range were excluded) and animals were evenly distributed to treatment and control groups. Treated animals were checked daily for treatment-related toxicity/mortality. […] The difference in body weight (Wt2−Wt1) provides a measure of treatment-related toxicity. Tumor weights (mg) were estimated from the formula: tumor weight=(length×width^2)/2.
Log cell kill was also used as a measure of anti-tumor activity according to the following equation: log cell kill=T−C/(3.32×TVDT). In this equation: T=mean tumor weight at the end of treatment for the treated group; C=mean tumor weight at the end of treatment for the control group; and TVDT=median time (days) for control tumor weight to reach target size−median time (days) for control tumor weight to reach half the target size.
A maximum tolerated dose (MTD), frequently equivalent to the optimal dose, was defined as a dose immediately below that causing unacceptable toxicity (i.e. more than one death) or, in the absence of any deaths, when accompanied by >20% loss of body weight.

The subject of series [11] is K562-R (K562/STI-571/R) imatinib resistant cells. As to the kind of experiment: cells. The following applies: Homo sapiens, K-562R.
Series [12] has as its system K562 intracranial CML tumor model. The series is described as follows: Survival of mice bearing intracranial K562 CML. Type of series: in vivo. The following applies: BIDx10. The method, then: Extramedullary complications, particular in the CNS, are known risks of Ph+ALL or Ph+CML in lymphoid blast crisis. […] Both drugs were administered orally to mice inoculated intracranially (IC) with K562 cells using a BID×10 treatment schedule.

The mark [13] stands for this setting: K562 cells, 72 hours incubation.

Entries after “also recorded” stand apart in the source; their conditions may differ. Read-outs that look alike come from different tables or passages of the source.

`Cc1ccc(NC(=O)c2ccc(CN3CCN(C)CC3)cc2)cc1Nc1nccc(-c2cccnc2)n1` [imatinib, reference compound]: the effect on tumors entry in series [1] (imatinib 75 and 150 mg/kg three times daily) is listed as “little or no impact”.
By IC50 is commonly meant the midpoint of a concentration-inhibition curve. On to `COc1cccc2c1C(=O)c1c(O)c3c(c(O)c1C2=O)C[C@@](O)(C(=O)CO)C[C@@H]3O[C@H]1C[C@H](N)[C@H](O)[C@H](C)O1` [adriamycin], for which the IC50 in [2] (K562/ADM cells, read-out: IC50) was 1250 nM; in [3], 21 nM. Further, in series [2] (K562/ADM versus parent K562 cells), the “fold resistance (IC50 K562/ADM versus K562)” value is listed as 60 fold.
As for `Cc1cn(-c2cc(NC(=O)c3ccc(C)c(Nc4nccc(-c5cccnc5)n4)c3)cc(C(F)(F)F)c2)cn1` [AMN107], the “imatinib-resistant BCR-ABL mutants/mutations against which active” value in series [4] is listed as 32/33. The concentration for half-maximal inhibition (IC50) in series [5] was […].
Take `Cc1nc(Nc2ncc(C(=O)Nc3c(C)cccc3Cl)s2)cc(N2CCN(CCO)CC2)n1` [dasatinib, N-(2-chloro-6-methylphenyl)-2-[[6-[4-(2-hydroxyethyl)-1-piperazinyl]-2-methyl-4-pyrimidinyl]amino]-5-thiazolecarboxamide]: the IC50 in series [6] (setting [13]) is 0.5 nM; in [2] (K562, K562/ADM cells), roughly 3 nM; in series [3] (setting [13]), 0.7 nM; in series [11], 4.4 nM. In series [6] (dasatinib versus imatinib or AMN107, FIG. 1A), the “sensitivity of K562 cells (percent growth inhibition), comparison” value is recorded as “significantly more sensitive to dasatinib than either imatinib or AMN107”. This molecule registered a Kp in series [7] of 0.05 to 0.1. Moreover, the “resistance factor (IC50 K562-R versus K562)” value in series [8] amounted to 6 fold. For the same molecule, in [9], the “bioluminescence of intracranial K562 cells after treatment” value is “virtually no bioluminescence; also recorded: marked reduction of bioluminescence”. The anti-leukemic activity result was “inactive” in series [10] (5 mg/kg PO) and “completely eliminated tumors” in [10] (30 mg/kg PO). Further, the growth delay in series [10] (15 mg/kg PO, P=0.0009) amounted to 16.7 days. In addition, the “increase in lifespan (ILS)” value in series [12] (5 mg/kg/adm oral) turned out to be 268%; in series [12] (15 mg/kg/adm oral), 450%. Further, the effect on tumor entry in series [1] (dasatinib 5 mg/kg (lowest dose)) is recorded as “tumor regressed initially”. Besides, the “effect on tumor size” value in series [1] (dasatinib, all doses except the lowest tested (5 mg/kg)) is reported as “substantial reductions in tumor size”.
